From patent US9440957B2, “Compounds and compositions for modulating EGFR Activity” (Novartis AG, priority 2012, dated 2016)
Where two headings read alike, the source gives them in different places.

Assays:
[1] = biological target: human EGFR L858R (NIH/3T3 cells) (Homo sapiens, UniProt P00533, L858R); test: EGFR target modulation in engineered NIH/3T3 cell lines (phospho-EGFR Y1068 AlphaLISA), EGFR L858R; format: cell-based; conditions: engineered NIH/3T3 cells, read-out: NIH3T3 IC50 (μM) EGFR (L858R)
Chain of human EGFR L858R (NIH/3T3 cells) (P00533 25-1210 L858R): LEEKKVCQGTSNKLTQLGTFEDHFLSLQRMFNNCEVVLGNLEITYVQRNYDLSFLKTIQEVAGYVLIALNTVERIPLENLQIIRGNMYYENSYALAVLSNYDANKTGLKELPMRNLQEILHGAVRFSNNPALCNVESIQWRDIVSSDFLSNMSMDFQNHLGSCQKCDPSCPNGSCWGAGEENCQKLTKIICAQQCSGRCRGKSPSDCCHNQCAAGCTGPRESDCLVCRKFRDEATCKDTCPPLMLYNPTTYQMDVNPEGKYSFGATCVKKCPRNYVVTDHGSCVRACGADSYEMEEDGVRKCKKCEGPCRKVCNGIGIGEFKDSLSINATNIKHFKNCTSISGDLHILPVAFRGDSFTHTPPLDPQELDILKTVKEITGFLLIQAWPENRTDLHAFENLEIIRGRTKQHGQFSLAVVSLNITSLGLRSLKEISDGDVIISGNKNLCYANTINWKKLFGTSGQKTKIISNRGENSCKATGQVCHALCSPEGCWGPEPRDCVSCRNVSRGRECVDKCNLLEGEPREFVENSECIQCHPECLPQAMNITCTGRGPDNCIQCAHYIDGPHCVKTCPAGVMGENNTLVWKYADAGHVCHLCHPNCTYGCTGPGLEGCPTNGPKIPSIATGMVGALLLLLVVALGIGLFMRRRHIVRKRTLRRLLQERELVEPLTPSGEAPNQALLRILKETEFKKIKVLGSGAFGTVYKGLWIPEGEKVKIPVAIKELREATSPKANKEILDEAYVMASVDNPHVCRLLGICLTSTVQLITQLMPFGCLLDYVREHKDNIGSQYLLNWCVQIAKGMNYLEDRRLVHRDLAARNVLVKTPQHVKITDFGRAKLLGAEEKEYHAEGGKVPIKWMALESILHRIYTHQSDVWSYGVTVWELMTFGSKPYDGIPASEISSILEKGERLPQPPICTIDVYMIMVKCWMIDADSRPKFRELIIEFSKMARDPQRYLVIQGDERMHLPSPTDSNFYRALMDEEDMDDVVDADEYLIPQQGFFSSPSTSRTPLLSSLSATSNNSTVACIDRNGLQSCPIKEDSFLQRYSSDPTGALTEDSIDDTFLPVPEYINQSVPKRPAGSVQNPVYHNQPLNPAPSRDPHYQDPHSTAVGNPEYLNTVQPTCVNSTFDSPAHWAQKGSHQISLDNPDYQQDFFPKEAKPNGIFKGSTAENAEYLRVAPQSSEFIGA
Method: (§1) EGFR Target Modulation in Engineered NIH/3T3 Cell Lines Tissue Culture.
(§2) The cells were harvested with 0.05% Trypsin/EDTA (Hyclone #SH30236.01), re-suspended in 5% FBS/DMEM Pen/Strep without Puromycin and plated at 9,000 cells per well in 50 μl of media in a 384-well black plate with clear bottoms (Greiner #789068G). The cells were allowed to incubate overnight in a 37° C., 5% CO2 humidified tissue culture incubator. A 12-point test compound curve was prepared by serial diluting a 10 μM stock 1:3 in DMSO in a 384-well compound plate (Greiner #789201L). The serial diluted compounds were transferred to the plate containing cells by using a 50 nl Pin Head device (Perkin Elmer) and the cells were placed back in the incubator for 3 hours. Only the EGFR WT-expressing cells were induced with 50 ng/ml EGF (Preprotech #AF-100-15) for 5 minutes before lysis. […] The plates were shaken at 4° C. for 5 minutes with foil top at maximum speed. […] The plates were sealed with a foil top and frozen at −80° C. and thawed when needed.
(§3) The frozen aliquots were thawed and briefly centrifuged. All antibodies and beads were diluted in 1× AlphaLISA HiBlock Buffer (PE #AL004C). […] Goat anti-total EGFR (R&D Systems #AF231) was added and allowed to equilibrate for 1 hour at room temperature at 1 nM final concentration.
(§4) With these parameters, the IC50's for each compound in each cell line was calculated using non-linear curve fitting analysis.

[2] = biological target: human EGFR WT (NIH/3T3 cells, EGF-induced) (Homo sapiens, UniProt P00533); test: EGFR target modulation in engineered NIH/3T3 cell lines (phospho-EGFR Y1068 AlphaLISA), EGFR WT; format: cell-based; conditions: engineered NIH/3T3 cells, read-out: NIH3T3 IC50 (μM) EGFR (WT)
Chain of human EGFR WT (NIH/3T3 cells, EGF-induced) (P00533 25-1210): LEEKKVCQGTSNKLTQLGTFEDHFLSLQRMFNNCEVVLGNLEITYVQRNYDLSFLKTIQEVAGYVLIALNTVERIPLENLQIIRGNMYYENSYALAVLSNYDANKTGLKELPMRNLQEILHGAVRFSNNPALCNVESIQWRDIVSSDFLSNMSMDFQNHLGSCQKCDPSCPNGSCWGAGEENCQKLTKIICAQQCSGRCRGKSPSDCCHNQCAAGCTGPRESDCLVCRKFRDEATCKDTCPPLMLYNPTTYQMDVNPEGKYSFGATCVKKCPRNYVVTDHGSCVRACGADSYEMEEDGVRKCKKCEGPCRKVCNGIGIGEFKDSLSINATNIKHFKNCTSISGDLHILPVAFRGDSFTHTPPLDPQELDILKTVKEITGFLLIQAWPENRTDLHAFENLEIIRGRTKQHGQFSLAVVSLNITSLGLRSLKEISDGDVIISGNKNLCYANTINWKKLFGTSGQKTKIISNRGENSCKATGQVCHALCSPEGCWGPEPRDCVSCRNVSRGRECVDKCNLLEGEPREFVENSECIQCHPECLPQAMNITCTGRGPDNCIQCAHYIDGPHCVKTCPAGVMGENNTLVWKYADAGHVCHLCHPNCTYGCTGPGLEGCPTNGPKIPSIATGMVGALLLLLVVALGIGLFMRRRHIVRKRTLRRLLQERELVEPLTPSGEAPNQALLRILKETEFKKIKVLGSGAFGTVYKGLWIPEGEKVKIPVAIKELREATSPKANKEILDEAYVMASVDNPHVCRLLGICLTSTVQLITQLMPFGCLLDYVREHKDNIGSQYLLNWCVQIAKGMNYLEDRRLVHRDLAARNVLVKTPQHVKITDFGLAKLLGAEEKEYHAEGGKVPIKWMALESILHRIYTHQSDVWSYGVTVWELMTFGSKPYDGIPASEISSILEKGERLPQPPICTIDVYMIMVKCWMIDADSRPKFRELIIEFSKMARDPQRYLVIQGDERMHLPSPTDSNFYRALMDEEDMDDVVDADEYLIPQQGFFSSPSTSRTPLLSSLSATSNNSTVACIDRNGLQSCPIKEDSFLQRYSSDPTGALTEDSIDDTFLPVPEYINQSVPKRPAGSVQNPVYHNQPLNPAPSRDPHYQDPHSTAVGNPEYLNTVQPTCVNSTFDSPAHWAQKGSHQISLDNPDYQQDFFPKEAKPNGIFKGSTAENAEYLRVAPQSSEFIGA
Method: as §1, §2, §3, §4

EGFR(L858R/T790M) = biological target: T1, EGFR(L858R/T790M) (Homo sapiens, UniProt P00533, L858R/T790M); test: EGFR biochemical assay (HTRF), IC50 determinations
T1 construct: purchased from Carna (GST-a.a. 669-1210)
T1 sequence (P00533 669-1210 T790M/L858R): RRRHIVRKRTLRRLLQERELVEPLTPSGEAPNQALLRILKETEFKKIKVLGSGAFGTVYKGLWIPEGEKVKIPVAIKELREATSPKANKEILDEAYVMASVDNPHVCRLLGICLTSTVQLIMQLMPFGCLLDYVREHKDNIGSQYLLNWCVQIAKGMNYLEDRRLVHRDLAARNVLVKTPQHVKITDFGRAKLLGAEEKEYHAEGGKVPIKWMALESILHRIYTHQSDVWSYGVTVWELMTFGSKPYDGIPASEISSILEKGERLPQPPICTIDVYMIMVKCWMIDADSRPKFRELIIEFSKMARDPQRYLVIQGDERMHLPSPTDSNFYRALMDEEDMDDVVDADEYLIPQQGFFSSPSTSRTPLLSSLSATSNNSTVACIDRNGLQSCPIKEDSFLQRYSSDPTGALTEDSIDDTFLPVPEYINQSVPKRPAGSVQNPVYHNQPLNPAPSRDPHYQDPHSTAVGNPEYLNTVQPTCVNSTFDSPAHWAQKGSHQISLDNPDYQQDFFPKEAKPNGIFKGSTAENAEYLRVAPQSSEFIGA
Method: All EGFR biochemical assays were carried out by HTRF method. […] The substrate peptide Biotin-TK-peptide was purchased from Cis-Bio. […] All reactions were carried out at room temperature in white ProxiPlate™ 384-well Plus plates (PerkinElmer) and were quenched with 5 μL of 0.2 M EDTA at 60 min. Five L of the detection reagents (2.5 ng PT66K and 0.05 μg SAXL per well) were added, the plates were incubated at room temperature for 1 h and then read in EnVision reader. […] For no-preincubation condition, the compounds were added to the assay solution containing ATP and peptide, and the reaction was initiated by addition of enzyme. For pre-incubation conditions, the compounds were added to the assay solution containing enzyme and peptide, and pre-incubated at room temperature for desired period of time, then the reaction was initiated by addition of ATP.

[3] = biological target: human EGFR L858R/T790M (NIH/3T3 cells) (Homo sapiens, UniProt P00533, L858R/T790M); test: EGFR target modulation in engineered NIH/3T3 cell lines (phospho-EGFR Y1068 AlphaLISA), EGFR L858R/T790M; format: cell-based; conditions: engineered NIH/3T3 cells, read-out: NIH3T3 IC50 (μM) EGFR (L858R/T790M)
Chain of human EGFR L858R/T790M (NIH/3T3 cells) (P00533 25-1210 T790M/L858R): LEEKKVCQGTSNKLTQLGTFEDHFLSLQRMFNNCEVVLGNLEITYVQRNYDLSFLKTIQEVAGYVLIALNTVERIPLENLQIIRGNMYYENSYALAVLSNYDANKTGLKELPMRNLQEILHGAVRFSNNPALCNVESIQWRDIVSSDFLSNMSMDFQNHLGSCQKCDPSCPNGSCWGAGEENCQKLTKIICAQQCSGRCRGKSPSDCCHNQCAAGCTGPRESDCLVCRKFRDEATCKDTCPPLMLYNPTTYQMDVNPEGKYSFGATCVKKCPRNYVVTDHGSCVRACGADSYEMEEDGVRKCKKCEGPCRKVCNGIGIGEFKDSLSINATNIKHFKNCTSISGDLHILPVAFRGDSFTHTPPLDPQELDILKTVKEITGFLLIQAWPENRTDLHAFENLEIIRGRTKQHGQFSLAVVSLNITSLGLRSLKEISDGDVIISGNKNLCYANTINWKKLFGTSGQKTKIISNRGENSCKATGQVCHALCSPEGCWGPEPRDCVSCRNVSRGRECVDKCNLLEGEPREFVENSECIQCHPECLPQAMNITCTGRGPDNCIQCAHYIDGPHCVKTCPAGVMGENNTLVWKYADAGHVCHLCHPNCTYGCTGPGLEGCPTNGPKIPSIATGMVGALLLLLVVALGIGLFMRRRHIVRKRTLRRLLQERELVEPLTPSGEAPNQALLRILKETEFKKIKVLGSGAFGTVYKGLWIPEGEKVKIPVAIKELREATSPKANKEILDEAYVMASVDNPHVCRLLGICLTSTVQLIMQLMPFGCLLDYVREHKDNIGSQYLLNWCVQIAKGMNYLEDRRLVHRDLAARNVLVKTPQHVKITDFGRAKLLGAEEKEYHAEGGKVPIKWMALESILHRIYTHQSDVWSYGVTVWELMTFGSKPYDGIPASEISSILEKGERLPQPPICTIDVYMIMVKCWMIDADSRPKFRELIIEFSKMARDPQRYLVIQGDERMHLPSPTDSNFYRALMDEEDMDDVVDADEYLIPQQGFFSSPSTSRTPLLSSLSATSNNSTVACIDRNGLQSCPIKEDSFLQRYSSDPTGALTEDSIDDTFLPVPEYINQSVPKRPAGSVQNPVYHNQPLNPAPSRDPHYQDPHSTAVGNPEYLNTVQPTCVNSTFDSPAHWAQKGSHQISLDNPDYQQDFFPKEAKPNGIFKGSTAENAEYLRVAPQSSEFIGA
Method: as §1, §2, §3, §4

[4] = EGFR (L858R/T790M) with 90 min pre-incubation, read-out: IC50 (μM) Column B
[5] = EGFR (L858R/T790M) with no pre-incubation, read-out: IC50 (μM) Column A

SMILES	IC50 [1] [µM]	IC50 [2] [µM]	IC50 (EGFR(L858R/T790M); [4]) [µM]	IC50 (EGFR(L858R/T790M); [5]) [µM]	IC50 [3] [µM]
Cc1cccc2nc(NC(=O)c3ccnc(C(F)(F)F)c3)n([C@H]3CCCCN(C(=O)/C=C/CN(C)C)C3)c12 (single isomer, unassigned) [Example 21-1]	2.23	> 10	0.012	0.171	0.12
C=CC(=O)N1CCCC[C@H](n2c(NC(=O)c3cccc(C(F)(F)F)c3)nc3cccc(C)c32)C1 (single isomer, unassigned) [Example 21-3]	2.2	> 10	0.098	0.7	0.45
C=CC(=O)N1CCOCC(n2c(NC(=O)c3cccc(C(F)(F)F)c3)nc3cccc(C)c32)C1 (single isomer, unassigned) [Example 21-7A]	3.2	> 10	0.56	2.01	0.49
C=CC(=O)N1CCOCC(n2c(NC(=O)c3cccc(C(F)(F)F)c3)nc3cccc(C)c32)C1 (single isomer, unassigned) [Example 21-7B]	0.012	0.65	< 0.001	0.008	0.002
Cc1ncc(C(=O)Nc2nc3cccc(C)c3n2C2CCCCN(C(=O)/C=C/CN(C)C)C2)s1 (single isomer, unassigned) [Example 21-8A]	0.211	0.98	0.033	0.62	0.138
C=CC(=O)N1CCC[C@H](n2c(NC(=O)c3cccc(C(F)(F)F)c3)nc3cc(C)ccc32)C1 [4, 21-5]			0.071	0.41	
Cc1cccc2nc(NC(=O)c3ccnc(C(F)(F)F)c3)n([C@@H]3CCCCN(C(=O)/C=C/CN(C)C)C3)c12 [8, 21-2]			< 0.001	< 0.001	
C=CC(=O)N1CCC[C@@H](n2c(NC(=O)c3cccc(C(F)(F)F)c3)nc3cc(C)ccc32)C1 [17-105, 21-6]			0.002	0.1	
Cc1cc(C(=O)Nc2nc3cccc(Cl)c3n2[C@@H]2CCCCN(C(=O)/C=C/CN3CC[C@H](O)C3)C2)ccn1 [Example 3-7]	0.009	0.89	< 0.001	0.006	0.021
COC1CN(C/C=C/C(=O)N2CCCC[C@@H](n3c(NC(=O)c4ccnc(C)c4)nc4cccc(Cl)c43)C2)C1 [Example 3-14]	0.011	0.78	< 0.001	0.012	0.012
C=CS(=O)(=O)N1CCCCC(n2c(NC(=O)c3cccc(C(F)(F)F)c3)nc3cccc(C)c32)C1 (stereo not drawn) [Example 10, N-(7-methyl-1-(1-(vinylsulfonyl)azepan-3-yl)-1H-benzo[d]imidazol-2-yl)-3-(trifluoromethyl)benzamide]	0.34	> 10	0.009	0.39	0.037
C=CC(=O)N1CCCCC(n2c(NC(=O)c3cccc(C(F)(F)F)c3)nc3cccc(CN4CCCC4)c32)C1 (stereo not drawn) [Example 11, N-(1-(1-acryloyazepan-3-yl)-7-(pyrrolidin-1-ylmethyl)-1H-benzo[d]imidazol-2-yl)-3-(trifluoromethyl)benzamide]	0.002	0.12	< 0.001	0.012	0.002
Cc1cccc2nc(NC(=O)c3ccccc3F)n(C3CCCCN(C(=O)/C=C/CN(C)C)C3)c12 (stereo not drawn) [Example 17-3]	0.034	0.86	< 0.001	0.026	0.015
Cc1cccc2nc(NC(=O)c3cnco3)n(C3CCCCN(C(=O)/C=C/CN(C)C)C3)c12 (stereo not drawn) [Example 17-5]	0.008	0.172	0.001	0.022	0.011
Cc1cccc2nc(NC(=O)c3cccc(C(F)(F)F)c3)n([C@H]3COCCN(C(=O)/C=C/CN(C)C)C3)c12 [Example 17-6]	0.7	6	0.01	0.189	0.244
Cc1cccc2nc(NC(=O)c3cccc(C(F)(F)F)c3)n([C@@H]3COCCN(C(=O)/C=C/CN(C)C)C3)c12 [Example 17-7]	0.015	0.55	< 0.001	0.005	0.003

SMILES	IC50 [1] [µM]	IC50 [2] [µM]	IC50 (EGFR(L858R/T790M); [4]) [µM]	IC50 (EGFR(L858R/T790M); [5]) [µM]	IC50 [3] [µM]
C=CC(=O)N1CCCC(n2c(NC(=O)c3cccc(C(F)(F)F)c3)nc3cnccc32)C1 (stereo not drawn) [Example 17-8]	5.5	> 10	0.137	7	0.37
C=CC(=O)N1CCCC(n2c(NC(=O)c3cccc(C(F)(F)F)c3)nc3ccncc32)C1 (stereo not drawn) [Example 17-9]	8.6	> 10	0.218	4.1	0.194
C=CC(=O)N1CCCCC(n2c(NC(=O)c3cccc(C(F)(F)F)c3)nc3cccc(C)c32)C1 (stereo not drawn) [Example 17-10]	0.007	1.65	< 0.001	0.014	0.003
C=CC(=O)N1CCCCC(n2c(NC(=O)c3ccccc3)nc3cccc(C)c32)C1 (stereo not drawn) [Example 17-11]	0.015	1.54	< 0.001	< 0.001	0.002
C=CC(=O)N1CCCC[C@@H](n2c(NC(=O)c3cccc(C(F)(F)F)c3)nc3ccccc32)C1 [Example 17-13]	0.008	0.43	< 0.001	0.006	0.001
Cc1cccc2nc(NC(=O)c3cn4ccsc4n3)n(C3CCCCN(C(=O)/C=C/CN(C)C)C3)c12 (stereo not drawn) [Example 17-51]	0.47		0.048	1.95	0.65
Cc1cccc2nc(NC(=O)c3ccnc(-n4cnnn4)c3)n(C3CCCCN(C(=O)/C=C/CN(C)C)C3)c12 (stereo not drawn) [Example 17-60]	0.002	0.012			0.002
Cc1ncccc1C(=O)Nc1nc2cccc(C)c2n1C1CCCCN(C(=O)/C=C/CN(C)C)C1 (stereo not drawn) [Example 17-62]	0.234	2.5	0.006	0.14	
Cc1cccc2nc(NC(=O)c3ccn4cncc4c3)n(C3CCCCN(C(=O)/C=C/CN(C)C)C3)c12 (stereo not drawn) [Example 17-63]	0.003	0.038	< 0.001	0.003	
C=CC(=O)N1CCC(n2c(NC(=O)c3cccc(C(F)(F)F)c3)nc3cc(C)ccc32)CC1 [Example 17-97]			0.4	0.204	
C=CC(=O)N1CCC(n2c(NC(=O)c3cccc(C(F)(F)F)c3)nc3cc(C)ccc32)C1 (stereo not drawn) [Example 17-98]			0.058	0.84	
C=CC(=O)N1CC(n2c(NC(=O)c3cccc(C(F)(F)F)c3)nc3cc(C)ccc32)C1 [Example 17-99]			0.097	1.22	
C=CC(=O)N1CCCC(n2c(NC(=O)c3cccc(C(F)(F)F)c3)nc3cc(C)ccc32)C1 (stereo not drawn) [Example 17-100]	0.34				0.026
C/C=C/C(=O)N1CC(n2c(NC(=O)c3cccc(C(F)(F)F)c3)nc3cc(C)ccc32)C1 [Example 17-101]			0.193	0.99	
C=CC(=O)N1CCCC(n2c(NC(=O)c3cccc(C(F)(F)F)c3)nc3cc(C)ccc32)CC1 (stereo not drawn) [Example 17-107]			0.38	0.32	
